Test results: publication PMC8448162, “Single- and Multiple-Ascending-Dose Study of the Safety, Tolerability, and Pharmacokinetics of the Polymyxin Derivative SPR206” (Antimicrobial Agents and Chemotherapy, 2021)
Positions of bridges follow the written chain, without caps; N, C: chain ends. Non-standard residues stand in square brackets, D forms with d. Residues, ends and D or L forms follow the SMILES beside them. *: point of attachment. X1 = NC[C@@H](CC(=O)*)c1cccc(Cl)c1; Dab = NCC[C@H](N)C(=O)O; Dap = NC[C@H](N)C(=O)O

Legend:
clinical = settings: human, in vivo; for CL renal: CLR (renal clearance)
Procedure: Maximum plasma concentration (Cmax), area under the concentration-time curve from time zero to last measurable time point (AUC0–t), area under the concentration-time curve from time zero to infinity (AUC0–inf), area under the concentration-time curve from time zero to tau (AUC0–tau), time to maximum concentration (Tmax), terminal elimination rate constant (kel), terminal half-life (t1/2), terminal clearance (CL), and volume of distribution (Vz) were determined. In addition, area under the concentration-time curve from 0 to 24 h after the start of infusion (AUC0–24) was determined for the SAD phase, and area under the concentration-time curve from time zero to 8 h from start of infusion (AUC0–8) on day 1 and 0 to 48 h (AUC0–48) following the last dose on day 14 as well as predose trough concentrations were determined for the MAD phase. Urine parameters included cumulative amount of drug excreted in successive urine intervals (Ae), renal clearance (CLR), fraction of cumulative fraction of dose recovered in urine as unchanged drug (Fe), and percentage fraction of cumulative fraction of dose recovered in urine as unchanged drug (Fe%). PK parameters were determined by noncompartmental analysis using Phoenix WinNonlin 8.1.
For the SAD phase, blood samples were obtained predose and at 30, 60, 75, 90, 105, 120, and 150 min and at 3, 5, 8, 12, and 24 h following the start of infusion. Urine was collected for PK assessment predose and over the intervals of 0 to 4 h, 4 to 8 h, 8 to 12 h, and 12 to 24 h after the start of infusion.
(§1) In the MAD phase, plasma samples for PK analysis were collected (i) on day 1—pre-dose and at 30, 60, 75, 90, 105, 120, and 150 min and at 3, 5, and 8 h following start of the first infusion; (ii) prior to the morning dose (within 10 min) on days 2, 3, 5, 7, 9, 11, and 13; and (iii) predose and 30, 75, 90, 105, 120, and 150 min and 3, 5, 8, and 12 h (day 14), 24, 36 (day 15), and 48 h (day 16) following start of the last infusion. Urine was collected for PK assessment on day 1 predose, over the intervals 0 to 4 h and 4 to 8 h after start of first infusion, and on days 14 and 15 over the intervals 0 to 4 h, 4 to 8 h, 8 to 12 h, and 12 to 24 h after start of day 14 infusion. Total 24-h urine for calculating CrCl was collected from the morning of day −1 to predose on day 1 and on days 15 and 16 over the interval from 24 to 48 h after the start of the day 14 infusion. Urine creatinine concentrations were measured using 24-h collections prior to the first dose on day 1 and over the 24 to 48 h following start of infusion of the last dose (day 14). Plasma and urine samples for SPR206 levels were analyzed using a validated liquid chromatography-tandem mass spectrometry (LC-MS/MS) method. The assay range for SPR206 was 50 to 5,000 ng/ml in plasma and 100 to 50,000 ng/ml in urine. In plasma, assay precision was 1.3 to 7.7%, accuracy was 1.2 to 9.5%, stability was 194 h at 4°C, and reproducibility was 98.4%. In urine, assay precision was 1.7 to 7.5%, accuracy was −4.8 to 7.3%, stability was 147 h at 4°C, and reproducibility was 97.8%.

[1] = type: in vitro ADME
Procedure: as §1, with “In plasma, assay precision was 1.3 to 7.7%, accuracy was 1.2 to 9.5%, stability was 194 h at 4°C, and reproducibility was 98.4%. In urine, assay precision was 1.7 to 7.5%, accuracy was −4.8 to 7.3%, stability was 147 h at 4°C, and reproducibility was 97.8%.” left out

What does the source list for `CC(C)C[C@@H]1NC(=O)[C@@H](Cc2ccccc2)NC(=O)[C@H](CCN)NC(=O)[C@@H](NC(=O)[C@H](CN)NC(=O)[C@@H](NC(=O)C[C@H](CN)c2cccc(Cl)c2)[C@@H](C)O)CCNC(=O)[C@H]([C@@H](C)O)NC(=O)[C@H](CCN)NC(=O)[C@H](CCN)NC1=O` [SPR206] (X1-T[Dap][Dab][Dab][dF]L[Dab][Dab]T; lactam 3-C (inferred))?
CL renal (clinical; 10 mg): 0.567 mL/min; CL renal (clinical; 25 mg): 4 mL/min; CL renal (clinical; 50 mg): 13.7 mL/min; CL renal (clinical; 100 mg): 25.8 mL/min; CLR (renal clearance) (clinical; 150 mg): 1.55 ± 0.17 L/h; CL renal (clinical; 150 mg): 35.5 mL/min; CL renal (clinical; 200 mg): 29.5 mL/min; CL renal (clinical; 300 mg): 35.5 mL/min; CL renal (clinical; 400 mg): 32.8 mL/min; Fe (%) (clinical; iv, 25 mg): 5.32 ± 4.38%; Fe (fraction of dose recovered in urine as unchanged drug) (clinical; iv, 25 mg): 0.05 ± 0.04; Fe (fraction of dose recovered in urine as unchanged drug) (clinical; iv, 50 mg): 0.18 ± 0.02; Fe (fraction of dose recovered in urine as unchanged drug) (clinical; iv, 100 mg): 0.27 ± 0.05; dose excreted (clinical; iv, 200 mg, Fe (%)): 35.7 ± 3.85%; dose excreted (clinical; iv, 200 mg, Fe (fraction of dose recovered in urine as unchanged drug)): 36 ± 4%; dose excreted (clinical; iv, 300 mg, Fe (fraction of dose recovered in urine as unchanged drug)): 49 ± 8%; dose excreted (clinical; iv, 400 mg, Fe (%)): 53.4 ± 6.21%; dose excreted (clinical; iv, 400 mg, Fe (fraction of dose recovered in urine as unchanged drug)): 53 ± 6%; stability in urine [1]: 147 h; stability in plasma ([1]; plasma): 194 h
